Measured values published in paper PMC9221290, “Alkaloids of Dicranostigma franchetianum (Papaveraceae) and Berberine Derivatives as a New Class of Antimycobacterial Agents” (Biomolecules, 2022).
Read-outs that look alike come from different tables or passages of the source.

What was measured:
[1] = system: Mycolicibacterium smegmatis DSM 43465 (ATCC 607); experiment: Antimycobacterial microdilution broth assay (resazurin), M. smegmatis; assay type: cell-based; conditions: Mycolicibacterium smegmatis, 48 h, read-out: MIC M. smegmatis, microdilution broth, resazurin, 48 h
in vitro = conditions: human, % of cell viability compared to control; for viability at 1 µM: HepG2, 1 µM; for viability at 5 µM: HepG2, 5 µM; for viability at 10 µM: HepG2, 10 µM; for viability at 20 µM: HepG2, 20 µM; for viability at 40 µM: HepG2, 40 µM; for viability at 100 µM: HepG2, 100 µM; for viability at 25 µM: HepG2, 25 µM; for viability at 50 µM: HepG2, 50 µM; for viability at 75 µM: HepG2, 75 µM; for viability at 0.1 µM: HepG2, 0.1 µM; for viability at 30 µM: HepG2, 30 µM
HepG2 cells [2] = experiment: cells; conditions: Homo sapiens, HepG2, 24 h
HepG2 cells [3] = system: HepG2 cells
[4] = system: Mycolicibacterium aurum DSM 43999 (ATCC 23366); experiment: Antimycobacterial microdilution broth assay (resazurin), M. aurum; assay type: cell-based; conditions: Mycolicibacterium aurum, 72 h, read-out: MIC M. aurum, microdilution broth, resazurin, 72 h
[5] = system: Mycobacterium avium DSM 44156 (ATCC 25291); experiment: Antimycobacterial microdilution broth assay (resazurin), M. avium; assay type: cell-based; conditions: Mycobacterium avium, 96 h, read-out: MIC M. avium, microdilution broth, resazurin, 96 h
[6] = system: Mycobacterium kansasii DSM 44162 (ATCC 12478); experiment: Antimycobacterial microdilution broth assay (resazurin), M. kansasii; assay type: cell-based; conditions: Mycobacterium kansasii, 96 h, read-out: MIC M. kansasii, microdilution broth, resazurin, 96 h
[7] = system: Mtb H37Ra ITM-M006710 (ATCC 9431); experiment: Antimycobacterial microdilution broth assay (resazurin), Mtb H37Ra; assay type: cell-based, Mycobacterium tuberculosis; conditions: Mycobacterium tuberculosis
[8] = read-out: HepG2 IC50, 1. measurement, MTT, 24 h, single measurement 1
[9] = read-out: HepG2 IC50, 2. measurement, MTT, 24 h, single measurement 2
[10] = read-out: HepG2 IC50, 3. measurement, MTT, 24 h, single measurement 3
[11] = read-out: HepG2 IC50, MTT, 24 h incubation
[12] = 120 h, microdilution broth, resazurin, 120 h, read-out: MIC Mtb H37Ra
[13] = calculated from MIC (µg/mL) and MW, read-out: MIC Mtb H37Ra

SMILES	MIC [1]	viability at 1 µM (in vitro; 1. measurement)	viability at 5 µM (in vitro; 1. measurement)	viability at 10 µM (in vitro; 1. measurement)	viability at 1 µM (in vitro; 2. measurement)	viability at 5 µM (in vitro; 2. measurement)	viability at 10 µM (in vitro; 2. measurement)	viability at 50 µM (in vitro; 2. measurement)	viability at 1 µM (in vitro; 3. measurement)	viability at 5 µM (in vitro; 3. measurement)	viability at 10 µM (in vitro; 3. measurement)	viability at 50 µM (in vitro; 3. measurement)	IC50 (HepG2 cells [2]; [8])	IC50 (HepG2 cells [2]; [9])	IC50 (HepG2 cells [2]; [10])	IC50 (HepG2 cells [2]; [11])	SI (selectivity index) (HepG2 cells [3])	MIC [4]	MIC [5]	MIC [6]	also measured
COc1ccc2cc3[n+](cc2c1OCc1cccc(C)c1)CCc1cc2c(cc1-3)OCO2 [16c, 9-O-(3-methylbenzyl)berberine chloride]	1.56 µg/mL	87.2%	88.3%	74%	88.3%	78.7%	68.3%	47.9%	99.8%	78.9%	64.9%	47.3%	55.6 µM	43.4 µM	42.3 µM	47.1 ± 7.38 µM	3.49	3.12 µg/mL	6.25 µg/mL	6.25 µg/mL	viability at 20 µM (in vitro; 1. measurement): 58.4%; viability at 40 µM (in vitro; 1. measurement): 54.5%; viability at 60 µM (in vitro; 1. measurement, HepG2, 60 µM): 53.3%; viability at 80 µM (in vitro; 1. measurement, HepG2, 80 µM): 49.5%; viability at 100 µM (in vitro; 1. measurement): 35.1%; viability at 25 µM (in vitro; 2. measurement): 52.9%; viability at 75 µM (in vitro; 2. measurement): 45.7%; viability at 100 µM (in vitro; 2. measurement): 39%; viability at 0.1 µM (in vitro; 3. measurement): 102%; viability at 25 µM (in vitro; 3. measurement): 48.6%; viability at 75 µM (in vitro; 3. measurement): 46.1%; viability at 100 µM (in vitro; 3. measurement): 42.5%; MIC [7, 12]: 6.25 µg/mL; MIC [7, 13]: 13.5 µM
COc1ccc2cc3[n+](cc2c1OCc1ccc(C)cc1)CCc1cc2c(cc1-3)OCO2 [16d, 9-O-(4-methylbenzyl)berberine chloride]	1.56 µg/mL	96.1%	70%	55.6%	92.6%	64.6%	48%	41.4%	76.5%	68.2%	52%	45.2%	19.3 µM	16 µM	12.3 µM	15.9 ± 3.48 µM	2.54	6.25 µg/mL	1.98 µg/mL	3.91 µg/mL	viability at 25 µM (in vitro; 1. measurement): 48%; viability at 50 µM (in vitro; 1. measurement): 43.7%; viability at 75 µM (in vitro; 1. measurement): 32.6%; viability at 100 µM (in vitro; 1. measurement): 7.68%; viability at 0.1 µM (in vitro; 2. measurement): 93.3%; viability at 25 µM (in vitro; 2. measurement): 45%; viability at 75 µM (in vitro; 2. measurement): 34%; viability at 100 µM (in vitro; 2. measurement): 15.7%; viability at 0.1 µM (in vitro; 3. measurement): 79.8%; viability at 25 µM (in vitro; 3. measurement): 47.6%; viability at 75 µM (in vitro; 3. measurement): 18.3%; viability at 100 µM (in vitro; 3. measurement): 11.4%; MIC ([7]; 120 h, read-out: MIC Mtb H37Ra, microdilution broth, resazurin, 120 h): 3.91 µg/mL; MIC ([7]; read-out: MIC Mtb H37Ra (µM), calculated from MIC (µg/mL) and MW): 8.46 µM
COc1ccc2cc3[n+](cc2c1OCc1cccc(Br)c1)CCc1cc2c(cc1-3)OCO2 [16f, 9-O-(3-brombenzyl)berberine chloride]	0.78 µg/mL	95.5%	69.4%	54.8%	104%	76.8%	56.1%	32.8%	90.5%	62.6%	49.4%	23.7%	14.1 µM	17 µM	10.5 µM	13.9 ± 3.25 µM	2.34	1.56 µg/mL	3.12 µg/mL	3.12 µg/mL	viability at 25 µM (in vitro; 1. measurement): 48.3%; viability at 50 µM (in vitro; 1. measurement): 39.3%; viability at 75 µM (in vitro; 1. measurement): 28%; viability at 100 µM (in vitro; 1. measurement): 12.3%; viability at 25 µM (in vitro; 2. measurement): 52.7%; viability at 75 µM (in vitro; 2. measurement): 2.26%; viability at 100 µM (in vitro; 2. measurement): 0.77%; viability at 25 µM (in vitro; 3. measurement): 43.7%; viability at 75 µM (in vitro; 3. measurement): 2.27%; viability at 100 µM (in vitro; 3. measurement): 1.1%; MIC [7, 12]: 3.12 µg/mL; MIC [7, 13]: 5.93 µM
COc1ccc2cc3[n+](cc2c1OCc1ccc(Br)cc1)CCc1cc2c(cc1-3)OCO2 [16g, 9-O-(4-brombenzyl)berberine chloride]	0.98 µg/mL	101%	70.1%	53.9%	96.5%	76.3%	59.4%	47.8%	85%	72.1%	56.6%	45.5%	19.2 µM	26.9 µM	18.2 µM	21.4 ± 4.8 µM	2.89	3.91 µg/mL	1.98 µg/mL	0.98 µg/mL	viability at 25 µM (in vitro; 1. measurement): 46.7%; viability at 50 µM (in vitro; 1. measurement): 42.5%; viability at 75 µM (in vitro; 1. measurement): 25.8%; viability at 100 µM (in vitro; 1. measurement): 17.9%; viability at 25 µM (in vitro; 2. measurement): 44.7%; viability at 75 µM (in vitro; 2. measurement): 40.7%; viability at 100 µM (in vitro; 2. measurement): 23.9%; viability at 25 µM (in vitro; 3. measurement): 45.8%; viability at 75 µM (in vitro; 3. measurement): 26%; viability at 100 µM (in vitro; 3. measurement): 14%; MIC [7, 12]: 3.91 µg/mL; MIC [7, 13]: 7.42 µM
COc1ccc2cc3[n+](cc2c1OCc1cccc(Cl)c1)CCc1cc2c(cc1-3)OCO2 [16h, 9-O-(3-chlorbenzyl)berberine chloride]	0.78 µg/mL	65.4%	66.5%	51.7%	94.6%	67.4%	54.2%	12.8%	87.2%	54.4%	47.8%	15.6%	8.53 µM	11.9 µM	7.91 µM	9.44 ± 2.13 µM	1.59	1.56 µg/mL	1.56 µg/mL	3.12 µg/mL	viability at 25 µM (in vitro; 1. measurement): 44.2%; viability at 50 µM (in vitro; 1. measurement): 36.5%; viability at 75 µM (in vitro; 1. measurement): 23.8%; viability at 100 µM (in vitro; 1. measurement): 15.7%; viability at 25 µM (in vitro; 2. measurement): 44.6%; viability at 75 µM (in vitro; 2. measurement): 1.14%; viability at 100 µM (in vitro; 2. measurement): 0.68%; viability at 25 µM (in vitro; 3. measurement): 36%; viability at 75 µM (in vitro; 3. measurement): 2.92%; viability at 100 µM (in vitro; 3. measurement): 0.98%; MIC [7, 12]: 3.12 µg/mL; MIC [7, 13]: 5.93 µM
COc1ccc2cc3[n+](cc2c1OCc1ccc(Cl)cc1)CCc1cc2c(cc1-3)OCO2 [16i, 9-O-(4-chlorbenzyl)berberine chloride]	1.56 µg/mL	101%	82.3%	55.3%	93.6%	78%	56%	3.4%	100%	82.3%	61.1%	2.8%	15.9 µM	14.7 µM	18 µM	16.2 ± 1.67 µM	2.73	3.12 µg/mL	1.56 µg/mL	6.25 µg/mL	viability at 0.1 µM (in vitro; 1. measurement): 96.1%; viability at 20 µM (in vitro; 1. measurement): 48.5%; viability at 30 µM (in vitro; 1. measurement): 42.3%; viability at 40 µM (in vitro; 1. measurement): 24.7%; viability at 50 µM (in vitro; 1. measurement): 4.45%; viability at 0.1 µM (in vitro; 2. measurement): 91.6%; viability at 20 µM (in vitro; 2. measurement): 48.4%; viability at 30 µM (in vitro; 2. measurement): 40%; viability at 40 µM (in vitro; 2. measurement): 21.4%; viability at 0.1 µM (in vitro; 3. measurement): 98.2%; viability at 20 µM (in vitro; 3. measurement): 54.6%; viability at 30 µM (in vitro; 3. measurement): 45%; viability at 40 µM (in vitro; 3. measurement): 25.8%; MIC [7, 12]: 3.12 µg/mL; MIC [7, 13]: 5.93 µM
